Reference: US10379016B1, “Apparatus for inoculating agar plate” (priority 2018, dated 2019)

Test system: S. aureus strain ATCC 29213
Assay: Antimicrobial susceptibility test by disc diffusion method (zone of inhibition)
Format: cell-based
Settings: microbial concentration 1 × 10^8 CFU/ml, 35-37° C., 18-20 h, NZI = No zone of inhibition; for Testing for zone of inhibition; Method of Inoculation: Swabbing: Mueller-Hinton agar plate inoculated by cotton swab; for Testing for zone of inhibition; Method of Inoculation: Apparatus, Double actuation / Testing for zone of inhibition; Method of Inoculation: Apparatus, Single actuation: Mueller-Hinton agar plate spray-inoculated with apparatus
Procedure: In an experiment, Mueller-Hinton Agar plates were prepared. Forty grams of Mueller-Hinton Agar (MHA) was suspended in 1 liter distilled water and then boiled to dissolve the powder completely. The medium was sterilized by autoclaving at 121° C. for 15 min. After autoclaving, the medium was cooled to 45° C. and poured 25 mL molten agar into sterile 90 mm diameter Petri dishes (petri plates) to give a depth of about 4 mm. The surface of the agar was dried to remove excess moisture before use.
The suspension density was measured by using an UV spectrophotometer. The density of the suspension was adjusted to McFarland 0.5 by addition of saline or more organisms. The number of colony forming units (CFU/ml) in the culture samples plays an important role in the incubation of the agar plates. For colony isolation, diluted microbial suspension (about 1-2×10^3 CFU/ml) can be sprayed over agar plate.
For comparison, some agar plates were inoculated by cotton swab. A sterile cotton swab was dipped into the bacterial suspension (1-2×10^8 CFU/ml) and the excess fluid removed by turning the swab against the inside of the tube to avoid over-inoculation of plates. The inoculum was spread evenly over the entire surface of the agar plate by swabbing in three directions.
Other agar plates were inoculated by using the present apparatus. The agar plates were inoculated with inoculum of bacterial suspension (1-2×10^8 CFU/ml). The bacterial suspension was filled in the reservoir of the present apparatus and then sprayed uniformly using the atomizer over an agar plate held inside the spray chamber using the atomizer.
Antimicrobial susceptibility tests of the S. aureus strain ATCC 29213 was determined by the disc diffusion method according to the recommendations and guidelines of Clinical Laboratory Standard Institutes (CLSI M100-S24; 2014). A panel of commercial antibiotic discs comprising Gentamicin (GM), Amikacin (AN), Chloramphenicol (C), Imipenem (IPM), Tetracycline (TE), Cefepime (FEP), Sulfamethoxazole/trimethoprim (SXT), Aztreonam (ATM) was used for susceptibility testing. All commercial antibiotic discs were purchased from BBL (Becton Dickinson, USA).
The predetermined panel of antimicrobial disks was applied firmly on the surface of inoculated Mueller-Hinton agar media by using a disc dispenser device.
Within 15 min of application of antimicrobial disks, the plates were inverted and incubated aerobically at 35-37° C. for 18-20 h.
After incubation, inhibition zones were read at the point where no obvious growth is detected by the unaided eye when the plate was held about 30 cm from the eye. The inhibition zone diameters were measured to the nearest millimeter with a ruler. The plates were read from the back of the plate with reflected light against a dark background. Zone diameters of antibiotics in swab inoculated plate were compared with zone diameter in apparatus-inoculated plates.

Molecule	Testing for zone of inhibition; Method of Inoculation: Swabbing	Testing for zone of inhibition; Method of Inoculation: Apparatus, Double actuation	Testing for zone of inhibition; Method of Inoculation: Apparatus, Single actuation
C[C@@H](O)[C@H]1C(=O)N2C(C(=O)O)=C(SCCN=CN)C[C@H]12 [IPM, Imipenem]	38 mm	38 mm	38 mm
C[C@H]1[C@H](NC(=O)/C(=N\OC(C)(C)C(=O)O)c2csc(N)n2)C(=O)N1S(=O)(=O)O [ATM, Aztreonam]	NZI	NZI	NZI
CO/N=C(\C(=O)N[C@@H]1C(=O)N2C(C(=O)[O-])=C(C[N+]3(C)CCCC3)CS[C@H]12)c1csc(N)n1 [FEP, Cefepime]	NZI	NZI	NZI
Gentamicin [GM]	21 mm	22 mm	22 mm
NCC[C@H](O)C(=O)N[C@@H]1C[C@H](N)[C@@H](O[C@H]2O[C@H](CN)[C@@H](O)[C@H](O)[C@H]2O)[C@H](O)[C@H]1O[C@H]1O[C@H](CO)[C@@H](O)[C@H](N)[C@H]1O [AN, Amikacin]	22 mm	23 mm	26 mm
CN(C)[C@@H]1C(O)=C(C(N)=O)C(=O)[C@@]2(O)C(O)=C3C(=O)c4c(O)cccc4[C@@](C)(O)[C@H]3C[C@@H]12 [TE, Tetracycline]	22 mm	24 mm	25 mm
O=C(N[C@H](CO)[C@H](O)c1ccc([N+](=O)[O-])cc1)C(Cl)Cl [C, Chloramphenicol]	21 mm	22 mm	22 mm
